pIC50: −log10 of the molar value. Entries after “also recorded” stand apart in the source; their conditions may differ. Like-named read-outs stand apart in the source and are kept apart here.
What was measured:
ADAR1p110 = biological target: T1, ADAR1p110 (Homo sapiens, UniProt P55265); experiment: in vitro editing assay with recombinant ADAR1p110 and dsRNA or DNA:RNA substrates; format: biochemical; details: for inhibitory potency of ADAR1 p110 editing activity (SAR analogs): data not shown
T1 construct: HAT (N); FLAG (alternative preparation, not on the same molecule as HAT) (N); made in house; host or cells: Sf9 insect cells, baculovirus
T1 sequence (P55265 1-931 isoform P55265-5): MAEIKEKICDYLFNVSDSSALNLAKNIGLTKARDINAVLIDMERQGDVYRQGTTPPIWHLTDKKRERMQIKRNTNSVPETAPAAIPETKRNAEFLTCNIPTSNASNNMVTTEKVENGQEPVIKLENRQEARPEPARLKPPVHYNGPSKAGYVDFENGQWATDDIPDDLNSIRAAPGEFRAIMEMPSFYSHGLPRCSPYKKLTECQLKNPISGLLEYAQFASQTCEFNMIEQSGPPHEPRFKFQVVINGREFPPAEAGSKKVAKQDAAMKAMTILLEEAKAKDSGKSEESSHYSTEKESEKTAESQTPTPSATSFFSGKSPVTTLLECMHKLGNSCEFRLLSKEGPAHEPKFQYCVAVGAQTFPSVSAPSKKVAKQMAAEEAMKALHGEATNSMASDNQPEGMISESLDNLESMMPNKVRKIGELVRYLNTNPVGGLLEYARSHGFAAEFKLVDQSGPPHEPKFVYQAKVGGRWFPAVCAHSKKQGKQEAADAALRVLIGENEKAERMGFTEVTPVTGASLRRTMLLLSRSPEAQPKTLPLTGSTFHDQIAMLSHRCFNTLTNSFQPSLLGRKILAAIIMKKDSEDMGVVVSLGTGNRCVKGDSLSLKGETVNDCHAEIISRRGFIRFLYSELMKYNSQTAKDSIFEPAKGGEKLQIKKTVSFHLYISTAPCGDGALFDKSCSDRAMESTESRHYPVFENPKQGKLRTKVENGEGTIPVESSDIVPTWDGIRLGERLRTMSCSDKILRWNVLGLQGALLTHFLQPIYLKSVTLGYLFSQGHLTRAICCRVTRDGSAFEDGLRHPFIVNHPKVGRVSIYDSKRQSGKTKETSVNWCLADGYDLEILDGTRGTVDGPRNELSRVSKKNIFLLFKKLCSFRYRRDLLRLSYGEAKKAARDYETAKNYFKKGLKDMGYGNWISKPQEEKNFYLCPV
Method: FIG. 26A-FIG. 26B show determination of IC50 by in vitro editing assay. In vitro editing assay using purified ADAR1p110 protein and two different substrates, matched (left) and mismatched (right) dsRNAs, was conducted in the presence of varying concentrations of compound #1 (FIG. 26A) or #13 (FIG. 26B) in order to estimate IC50 values for these compounds. In vitro editing was carried out using HAT-ADAR1p110 or HAT-ADAR2 recombinant protein (10 nM) and two different dsRNA substrates carrying a part of the CDK13 gene sequence (5 nM) at 37° C. for 2 hrs as described previously (12). Compounds were dissolved in 100% DMSO. The in vitro assay contained DMSO at final concentration of 16%.
The in vitro editing reaction mixture, containing 5 nM of telomere RNA:RNA duplex substrates and 75 nM of HAT-ADAR1p110-WT, FLAG-ADAR1p110-WT, or HA-ADAR1p110-EAA protein, was incubated at 37° C. for 2 h in in vitro editing buffer I (20 mM HEPES-KOH pH 7.5, 100 mM NaCl, 0.01% NP-40, 5% glycerol, 1 mM DTT). For editing of RNA:DNA hybrid substrates, in vitro editing buffer II (20 mM HEPES-KOH pH 7.5, 20 mM NaCl, 0.01% NP-40, 5% glycerol, 1 mM DTT) was used. Edited RNA or DNA strands were purified using Dynabeads MyOne Streptavidin C1 (Thermo Fisher Scientific). To remove opposite RNA or DNA strands, rNase H (NEB) or TURBO dNase (Thermo Fisher Scientific) was used, respectively. For sequencing of edited substrates, reverse transcription-PCR was carried out for RNA strands, while PCR was carried out for DNA strands. RT reactions were carried out using SuperScript III Reverse Transcriptase (Thermo Fisher Scientific), and PCR reactions were performed using Platinum Taq DNA polymerase (Thermo Fisher Scientific). PCR products were sequenced using a specific sequencing primer, and the ratio of A and G peaks in the chromatograms were analyzed by CodonCode Aligner (CodonCode Corporation).
The 54 compounds identified in the high-throughput screen were further tested in the in vitro editing assay described in Examples 1 and 2. The in vitro editing reaction mixture, containing 5 nM of telomere RNA:RNA duplex substrates and 75 nM of HAT-ADAR1p110-WT, FLAG-ADAR1p110-WT, or HA-ADAR1p110-EAA protein, was incubated at 37° C. for 2 h in in vitro editing buffer I (20 mM HEPES-KOH pH 7.5, 100 mM NaCl, 0.01% NP-40, 5% glycerol, 1 mM DTT) with 10 microM test compound. For editing of RNA:DNA hybrid substrates, in vitro editing buffer II (20 mM HEPES-KOH pH 7.5, 20 mM NaCl, 0.01% NP-40, 5% glycerol, 1 mM DTT) was used. Edited RNA or DNA strands were purified using Dynabeads MyOne Streptavidin C1 (Thermo Fisher Scientific). To remove opposite RNA or DNA strands, Rnase H (NEB) or TuRBO Dnase (Thermo Fisher Scientific) was used, respectively. For sequencing of edited substrates, reverse transcription-PCR was carried out for RNA strands, while PCR was carried out for DNA strands. RT reactions were carried out using SuperScript III Reverse Transcriptase (Thermo Fisher Scientific), and PCR reactions were performed using Platinum Taq DNA polymerase (Thermo Fisher Scientific). PCR products were sequenced using a specific sequencing primer, and the ratio of A and G peaks in the chromatograms were analyzed by CodonCode Aligner (CodonCode Corporation).

U2OS cells = experiment: Apo Tox-Glo viability assay, U2OS cells; format: cell-based, human; details: 5 μM, 3 days
Method: (§1) HeLa, U2OS, and MRI90 cells were cultured in the presence of ADAR1 inhibitors, 5 μM or 20 μM, for 3 days. Their viability was examined using the Apo Tox-Glo assay system (Promega), which measures plasma membrane penetration of glycyl-phenyl-alanyl-aminofluorocoumarin peptide. Control, 0.3% DMSO. […] Data are mean±S.D. (n=3, biological replicates).
(§2) FIGS. 29A-29D Characterization of Compound #13 effects in cancer cells. […] Viability was examined using the Apo Tox-Glo assay system (Promega). Control, 0.3% DMSO. (FIG. 29B) Western blotting analysis of HeLa cells treated with Compound #13 (10 μM). […] (FIG. 29D) Activation of the IFN signaling pathway. HSC-4 squamous carcinoma cells were treated with Compound #13 at 10 μM (12 hrs). RNA samples were analyzed by qRT-PCR to monitor expression levels of ISGs.

HeLa cells = experiment: Apo Tox-Glo viability assay, HeLa cells; format: cell-based, human; details: 5 μM, 3 days
Method: as §1, §2

[1] = system: IMR90 normal fibroblast cells; experiment: Apo Tox-Glo viability assay, IMR90 normal fibroblast cells; format: cell-based; details: 5 μM, 3 days
Method: as §1, §2

[2] = DNA:RNA mismatched hybrid substrate, read-out: IC50 estimated by in vitro editing assay, DNA:mmRNA
[3] = mismatched dsRNA substrate, read-out: IC50 estimated by in vitro editing assay, RNA:mmRNA
[4] = matched dsRNA substrate, read-out: IC50 estimated by in vitro editing assay, RNA:RNA

| pIC50 (ADAR1p110; [2]) | pIC50 (ADAR1p110; [3]) | pIC50 (ADAR1p110; [4]) | SMILES | viability of HeLa (non-ALT) cells (HeLa cells) | viability of MRI90 (normal fibroblast) cells [1] | further results |
| --- | --- | --- | --- | --- | --- | --- |
| 5.00 to 5.52 | 4.34 |  | Cc1cc(C)n(-c2ccc(N3CCSCC3)nn2)n1 [compound 37, 4-[6-(3,5-dimethylpyrazol-1-yl)pyridazin-3-yl]thiomorpholine] |  |  | pIC50 (ADAR1p110; matched dsRNA substrate, adenosine position 2, read-out: IC50 estimated by in vitro editing assay, RNA:RNA, Position 2): 4.16; pIC50 (ADAR1p110; matched dsRNA substrate, adenosine positions 3 & 6, read-out: IC50 estimated by in vitro editing assay, RNA:RNA, Position 3 & 6): 5.52 |
| 4.77 to 5.30 |  |  | CSc1[nH]nc(-c2ccc(Cl)cc2)c1C#N [compound 27, 5-(4-chlorophenyl)-3-methylsulfanyl-1H-pyrazole-4-carbonitrile] | significantly decreased viability; also recorded: significantly reduced viability | very little effects | viability of U2OS (ALT) cells (U2OS cells): very little effects |
|  |  |  | N#Cc1ccccc1NC(=O)c1sc2ccccc2c1Cl [Compound #13-Analog 2] |  |  | inhibitory potency of ADAR1 p110 editing activity (SAR analogs) (ADAR1p110): weaker but retained A-to-I editing inhibitory activity |
|  | 4.48 | 4.57 | NC(=NOC(=O)c1ccc([N+](=O)[O-])o1)c1ccc(OCc2ccc(Cl)cc2)c(Cl)c1 [Compound #1, [[amino-[3-chloro-4-[(4-chlorophenyl)methoxy]phenyl]methylidene]amino]5-nitrofuran-2-carboxylate] | significantly decreased viability; also recorded: significantly reduced viability | very little effects |  |
|  | 4.57 | 4.24 | COc1cc(C2=NNC(=O)CC2)cc(OC)c1OC [compound 40, 3-(3,4,5-trimethoxyphenyl)-4,5-dihydro-1H-pyridazin-6-one] |  |  |  |
| 5.52 to 5.82 |  |  | CSc1nc(SC)c(C#N)c(-c2ccco2)n1 [compound 52, 4-(furan-2-yl)-2,6-bis(methylsulfanyl)pyrimidine-5-carbonitrile] |  |  | inhibition of editing of A:U matched dsRNA (ADAR1p110; matched dsRNA substrate, FIG. 25C, 10 microM test compound): not A:U matched dsRNA; inhibition of editing of A-C mismatched dsRNA (ADAR1p110; mismatched dsRNA substrate, FIG. 25C, 10 microM test compound): inhibited A-C mismatched dsRNA; inhibition of editing of A-C mismatched dsRNA (ADAR1p110; mismatched dsRNA substrate, FIG. 25C, 10 microM test compound, listed as #52): more specific inhibitory effects on adenosine at A-C mismatched base pairs |
|  |  |  | O=C(Nc1ccccc1)c1sc2ccccc2c1Cl [Compound #13-Analog 1] |  |  | inhibitory potency of ADAR1 p110 editing activity (SAR analogs) (ADAR1p110): complete loss of inhibitory potency; also recorded: inactive compound |
| 4.12 to 4.52 |  |  | Cc1cc(C)n2nc(-c3ccccc3)cc2n1 [compound 6, 5,7-dimethyl-2-phenylpyrazolo[1,5-a]pyrimidine] | significantly decreased viability; also recorded: significantly reduced viability | very little effects | viability of U2OS (ALT) cells (U2OS cells): very little effects |
|  |  | 4.17 | N#Cc1c(-c2ccccc2)cc(SCc2ccc(Cl)cc2)n2c1nc1ccccc12 [compound 23, 1-[(4-chlorophenyl)methylsulfanyl]-3-phenylpyrido[1,2-a]benzimidazole-4-carbonitrile] |  |  | pIC50 (ADAR1p110; mismatched dsRNA substrate, adenosine position 6, read-out: IC50 estimated by in vitro editing assay, RNA:mmRNA, Position 6): 4.18 |

— patent publication US20250066864A1, “METHODS FOR IDENTIFYING ADAR1 INHIBITORS, AND COMPOSITIONS AND METHODS OF USE IN TREATING CANCER” (The Wistar Institute of Anatomy and Biology, priority 2021, published 2025)
